Laboratory results as given in EP0810221A1 (MITSUBISHI CHEMICAL CORPORATION, priority 1995, dated 1996).

Legend:
[1] = tested on: IgE; details: cited from earlier work
[2] = tested on: IgG; details: cited from earlier work
[3] = rats, osteoclasia accentuated by parathormone; cited from earlier work
[4] = target: T1, cathepsin B (Sigma, C-6286) (Bos taurus, UniProt P07688); test: Inhibitory activity against cathepsin B; assay type: biochemical; details: Inhibitory activity against cathepsin B (Table-5)
T1 construct: purchased Sigma C-6286
Description: Inhibitory activity against cathepsin B (Sigma, C-6286) was determined according to a method described in a literature (Biochemical Journal, Vol. 201, p. 189, 1982).

[5] = target: T2, m-Calpain (Rattus norvegicus, UniProt Q07009); test: Inhibitory activity against calpain (m-Calpain purified from brains of rats); assay type: biochemical; details: Inhibitory activity against calpain (continuation of Table-6)
T2 construct: m-Calpain was purified from brains of rats; from tissue; host or cells: rat brain
T2 sequence (Q07009 20-700 limits assumed): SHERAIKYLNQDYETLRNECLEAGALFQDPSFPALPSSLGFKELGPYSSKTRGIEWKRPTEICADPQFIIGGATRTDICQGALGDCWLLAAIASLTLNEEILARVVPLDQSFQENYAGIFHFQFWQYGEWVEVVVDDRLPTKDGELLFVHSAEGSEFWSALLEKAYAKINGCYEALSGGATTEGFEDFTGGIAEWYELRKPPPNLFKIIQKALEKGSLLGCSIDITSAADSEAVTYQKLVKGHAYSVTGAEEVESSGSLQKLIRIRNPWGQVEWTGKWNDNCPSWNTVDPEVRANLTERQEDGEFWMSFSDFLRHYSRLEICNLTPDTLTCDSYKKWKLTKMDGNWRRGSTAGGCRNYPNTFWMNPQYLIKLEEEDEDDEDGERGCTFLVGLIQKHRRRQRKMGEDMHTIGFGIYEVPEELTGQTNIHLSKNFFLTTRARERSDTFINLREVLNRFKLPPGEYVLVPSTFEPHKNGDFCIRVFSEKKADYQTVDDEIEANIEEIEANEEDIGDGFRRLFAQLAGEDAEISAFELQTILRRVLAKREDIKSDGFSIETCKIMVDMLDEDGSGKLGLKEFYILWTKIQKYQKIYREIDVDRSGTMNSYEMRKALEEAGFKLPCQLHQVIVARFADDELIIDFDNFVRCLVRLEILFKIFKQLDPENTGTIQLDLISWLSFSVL
T2 sequence (Q64537 1-270 partner): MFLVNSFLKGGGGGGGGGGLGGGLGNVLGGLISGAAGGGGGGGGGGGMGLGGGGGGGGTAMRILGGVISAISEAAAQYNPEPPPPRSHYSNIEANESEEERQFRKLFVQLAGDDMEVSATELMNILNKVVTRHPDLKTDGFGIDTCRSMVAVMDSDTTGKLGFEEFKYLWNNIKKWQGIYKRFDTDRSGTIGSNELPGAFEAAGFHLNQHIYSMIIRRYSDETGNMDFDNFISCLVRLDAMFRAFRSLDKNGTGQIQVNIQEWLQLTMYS
Description: m-Calpain was purified from brains of rats according to a method described in a literature (Journal of Biological Chemistry, Vol. 259, p. 3210, 1984), and the inhibitory activity was determined in a manner according to a published method (Journal of Biological Chemistry, Vol. 259, p. 12489, 1984).

[6] = Release of an active compound in blood: incubation in rat serum, HPLC; assay type: in vitro ADME; details: final concentration 100 µ M, 37°C, 5 minutes
Description: (2S,3S)-2-acetoxy-3-((S)-4-methyl-2-phenylsulfonylaminovalerylamino)tetrahydrofuran obtained in Example 88 was dissolved in acetonitrile and the solution was added to rat serum so that its final concentration was adjusted to 100 µ M. The mixture was incubated at 37°C for 5 minutes. The mixture was then added with acetonitrile and centrifuged, and the resulting solution portion was applied to HPLC for analysis. For comparison, solutions obtained by dissolving (3S)-3-((S)-4-methyl-2-phenylsulfonylaminovalerylamino)-2-tetrahydrofuranol obtained in Example 1 and (2S,3S)-2-acetoxy-3-((S)-4-methyl-2-phenylsulfonylaminovalerylamino)tetrahydrofuran obtained in Example 88 in acetonitrile respectively were examined by HPLC.
The HPLC conditions were as follows: Column: Nucleosil 1005 C18, 4.6×250 mm (Nagel) Column temperature: 50°C Mobile phase: CH3CN:H2O:PIC A Low UV (Waters) = 22:78:1 Flow rate: 1 ml/min Detection wavelength: UV 222 nm

[7] = Release of an active compound in blood: incubation in human serum, HPLC; assay type: in vitro ADME; details: same procedure
[8] = Release of an active compound in blood: incubation in dog serum, HPLC; assay type: in vitro ADME; details: same procedure
[9] = Acute toxicity test, oral; details: both sexes, rat, in vivo, orally administered, suspended in 0.5% aqueous CMC-Na, SD male and female rats, observed for seven days
Excerpt: Compounds of the present invention was suspended in 0.5% aqueous solution of CMC-Na and the suspensions were orally administered to SD male and female rats.

[10] = tested on: experimental model of cataract; details: cited from earlier work
[11] = tested on: microtubule-binding proteins; details: after cerebral ischemia; cited from earlier work
[12] = tested on: muscular dystrophy hamsters; details: cited from earlier work
[13] = tested on: blood platelets; details: cited from earlier work
[14] = tested on: animal model of myocardial infarct; details: in vivo; cited from earlier work
[15] = tested on: axon; details: head injury model using a rat; cited from earlier work

SMILES: NC(N)=NCCCCNC(=O)[C@H](Cc1ccccc1)NC(=O)[C@H]1O[C@@H]1C(=O)O [Estatin A]
- production of IgE [1]: specifically suppresses
- production of IgG [2]: does not affect
- hydroxyproline concentration [3]: lowered
- serum calcium concentration [3]: lowered

SMILES: CC(C)C[C@H](NS(=O)(=O)c1cccnc1)C(=O)N[C@H]1CCOC1O (stereo partly drawn) [Example 77, (3S)-3-{(S)-4-methyl-2-(3-pyridylsulfonylamino)valerylamino}-2-tetrahydrofuranol]
- IC50 [4]: 0.4 µM
- IC50 [5]: 1 µM

SMILES: CC(C)C[C@H](NC(=O)[C@H](CC(C)C)NS(=O)(=O)c1ccccc1)C(=O)N[C@H]1CCOC1O (stereo partly drawn) [Example 87, (3S)-3-{(S)-2-((S)-4-methyl-2-phenylsulfonylaminovalerylamino)-4-methylvalerylamino}-2-tetrahydrofuranol]
- IC50 [4]: 1.3 µM
- IC50 [5]: 0.78 µM

SMILES: CC(=O)O[C@@H]1OCC[C@@H]1NC(=O)[C@H](CC(C)C)NS(=O)(=O)c1ccccc1 [Example 88, (2S,3S)-2-acetoxy-3-((S)-4-methyl-2-phenylsulfonylaminovalerylamino)tetrahydrofuran]
- hydrolyzed and converted into the active form [6]: 97%
- formation of active form [7]: formations of active form were also observed
- formation of active form [8]: formations of active form were also observed
- LD50 at 7 days [9]: < 2000 mg/kg

SMILES: CC(=O)O[C@@H]1OCC[C@@H]1NC(=O)[C@H](CC(C)C)NC(=O)c1ccccc1F [Example 96, (2S,3S)-2-acetoxy-3-{(S)-2-(2-fluorobenzoylamino)-4-methylvalerylamino}tetrahydrofuran]
- LD50 at 7 days [9]: < 2000 mg/kg

SMILES: CC(=O)O[C@@H]1OCC[C@@H]1NC(=O)[C@H](CC(C)C)NS(=O)(=O)c1ccc(C)cc1 [Example 106, (2S,3S)-2-acetoxy-3-{(S)-4-methyl-2-(4-methylphenylsulfonylamino)valerylamino}tetrahydrofuran]
- LD50 at 7 days [9]: < 2000 mg/kg

SMILES: CC(C)C[C@H](NC(=O)[C@H]1O[C@@H]1C(=O)O)C(=O)NCCCCN=C(N)N [Example E-64, E-64]
- efficacy in an experimental model of cataract [10]: effective
- hydroxyproline concentration [3]: lowered
- serum calcium concentration [3]: lowered

SMILES: CC(C)CCNC(=O)[C@H](CC(C)C)NC(=O)[C@H]1O[C@@H]1C(=O)O [Example E-64-c, E-64-c]
- degradation of microtubule-binding proteins [11]: suppressed

SMILES: CCOC(=O)[C@H]1O[C@@H]1C(=O)N[C@@H](CC(C)C)C(=O)NCCC(C)C [Example E-64-d, E-64-d]
- life prolongation effect [12]: life prolongation effect
- platelet aggregation caused by thrombin [13]: suppressed

SMILES: CCOC(=O)[C@@H]1O[C@H]1C(=O)NC(CC(C)C)C(=O)N1CCN(Cc2ccc(OC)c(OC)c2OC)CC1.CCOC(=O)[C@@H]1O[C@H]1C(=O)NC(CC(C)C)C(=O)N1CCN(Cc2ccc(OC)c(OC)c2OC)CC1.O=S(=O)(O)O (stereo partly shown) [NCO-700]
- efficacy in an animal model of myocardial infarct [14]: effective

SMILES: CC(=O)N[C@@H](CC(C)C)C(=O)N[C@@H](CC(C)C)C(=O)N[C@H](C=O)CCCNC(=N)N [leupeptin]
- protective effect on axon [15]: protective effect on axon was observed
